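Dose response: 5 concentrations. Exposure: 48 h. Format: 96-well plates. Endpoint: linear interpolation; highest concentration if not reached. GI50: concentration for 50% inhibition of growth. At the TGI there is no net growth.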
Tests used:
Assay in all cases: growth of human tumour cells (NCI), 48 h
CAKI-1 renal = test system: CAKI-1 renal
HS 578T breast = test system: HS 578T breast
MCF7 breast = test system: MCF7 breast
MDA-MB-435 = test system: MDA-MB-435
NCI-H460 lung = test system: NCI-H460 lung
NCI/ADR-RES ovarian = test system: NCI/ADR-RES ovarian
RXF 393 renal = test system: RXF 393 renal
SF-268 CNS = test system: SF-268 CNS
SF-539 CNS = test system: SF-539 CNS
UACC-62 melanoma = test system: UACC-62 melanoma

Compound	TGI (CAKI-1 renal) [µM]	TGI (HS 578T breast) [µM]	TGI (MCF7 breast) [µM]	TGI (MDA-MB-435) [µM]	TGI (NCI-H460 lung) [µM]	TGI (NCI/ADR-RES ovarian) [µM]	TGI (RXF 393 renal) [µM]	TGI (SF-268 CNS) [µM]	TGI (SF-539 CNS) [µM]	TGI (UACC-62 melanoma) [µM]	GI50 (CAKI-1 renal) [µM]	GI50 (HS 578T breast) [µM]	GI50 (MCF7 breast) [µM]	GI50 (MDA-MB-435) [µM]	GI50 (NCI-H460 lung) [µM]	GI50 (NCI/ADR-RES ovarian) [µM]	GI50 (RXF 393 renal) [µM]	GI50 (SF-268 CNS) [µM]	GI50 (SF-539 CNS) [µM]	GI50 (UACC-62 melanoma) [µM]
OCCSCc1ccccc1	> 100	> 100	> 100	> 100	> 100	> 100	> 100	> 100	> 100	> 100										
O=C(Nc1ccc(F)cc1)c1c(NC(=O)C(F)(F)F)sc2c1CCCCC2	5.17	4.57	9.84	17	10	7.82	6.56	88	11.8	5.19	1.35	0.633	1.97	2.69	2.13	2.01	1.75	2.28	2.04	0.585
Nc1ccc(S(=O)(=O)C23CC4CC(CC(C4)C2)C3)cc1	> 100	> 100	> 100	> 100	> 100	> 100	79.4	> 100	> 100	> 100										
COC(=O)c1sc(C(=O)OC)c2c1CSC2	> 100	> 100	> 100	> 100	> 100	> 100	> 97.1	> 100	> 100	> 100										
CC(C)c1ccc(/C(C(=O)O)=C(\O)C(=O)O)cc1	> 100	> 100	> 100	> 100	> 100	> 100	> 100	> 100	> 100	> 100										
Cc1cc(C)c(C[N+](C)(C)C)c(C)c1C	> 26	9.94	15.2	12.5	> 100	16.3	3.43	10	4.86	18.9	0.281	0.338	0.289	0.328	0.367	0.475	0.249	0.364	0.292	0.538
Nc1nnc2cc(Cl)ccc2n1	> 100	> 100	> 100	> 100	> 100	> 100	> 100	> 100	> 100	> 100	> 100	24.6	> 100	> 100	> 100	> 100	> 100	> 100	> 100	> 100
N#Cc1cnc2cc(OC[C@@H](O)CO)c(NC(=O)CC3CSSC3)cc2c1Nc1ccc(OCc2cccc(F)c2)c(Cl)c1	18.9	0.282	0.182	0.303	0.261	3.16	1.44	0.771	1.47	1.08	6.34	0.105	0.0857	0.113	0.104	2.19	0.643	0.0814	0.725	0.38
Nc1ccc2c(c1)NCCN2	> 100	> 100	> 100	> 100	> 100	> 100	> 100	> 100	> 100	> 100										
OCC1OC(n2ccc3c(NO)ncnc32)C(O)C1O (centres undefined)	0.403	> 24.1	1.68	0.632	4.45	1.64	1.14	2.81	1.29	0.326	0.0472	0.332	0.13	0.198	0.044	0.238	0.163	0.233	0.288	0.128
N#Cc1c(-c2ccccc2)cc(-c2ccc(Nc3nc(Nc4ccc(Cl)cc4)nc(Nc4ccc(Cl)cc4)n3)cc2)nc1N	30.4	6.02	4.16	14.1	15.8	> 100	4.72	19.7	3.24	45.4	11.8	1.2	1.56	2.8	3.47	16.2	1.78	4.33	1.69	5.56
O=c1nc(Nc2cccc(Cl)c2)oc2cc(Cl)oc(=O)c12	21.5	17.4	20.9	20.8	39.9	70.5	8.52	14.2	21	21.3	5.93	2.81	4.33	5.34	16.7	13.4	3.22	3.69	4	5.79
O=C(c1ccc2ncc(-c3nc(NC4CC4)ncc3F)n2c1)N1CCOCC1	62.8	8.04	11	14.4	> 100	19.2	3.02	7.12	4.79	3.6	1.33	2.21	2.71	3.11	2.91	2.92	1.07	2.53	1.8	1.54
CC/C=C\C[C@H](O)C/C=C1/C(=O)C=C[C@@H]1C/C=C\CCCC(=O)N(C)C	2.67	27.6	12.2	2.37	7.4	7.9	3.26	13.9	7.14	5.12	1.22	4.29	0.368	0.862	2.37	1.08	1.73	3.04	2.18	2.2
Cc1nc2ccc(Nc3nc(NCCN4CCOCC4)nc(Nc4ccc(F)cc4)n3)cc2n1Cc1ccccc1	65	6.66	11.7	6.25	13.2	40.1	4.07	33.9	3.23	6.18	2.55	1.87	2.46	2.23	3.59	3.79	1.59	5.82	1.63	2.27
C#CC1(O)C(COP(=O)(O)OC2CC(n3cc(F)c(=O)[nH]c3=O)OC2CO)OC(n2ccc(N)nc2=O)C1O (centres undefined)	0.0813	> 35.4	0.137	0.545	> 32.1		2.37	13.5	0.22	1.82	< 0.01	0.304	< 0.01	< 0.0176	< 0.01	< 0.012	< 0.0342	< 0.01	< 0.0105	0.019
O=C(NCCCNc1cc(-c2cn(-c3ccccc3)nc2-c2cccc(O)c2)ccn1)c1ccccc1	15.3	48.3	5.29	4.75	18.7	9.79	6.2	> 100	10.3	12.2	2.48	3.06	1.74	1.87	3.61	2.67	1.97	3.74	3.02	3.15
O=C1C=C(Br)C(=O)C12CCc1ccccc12 (centres undefined)	16.3	> 82.5	48.5	31.8	48	81.3	19.1	58.7	35.6	32										
CN1CCCN(C)C1c1cc([N+](=O)[O-])ccc1O	> 100	67.8	63.3	> 100	> 100	> 100	> 100	> 100	74.9	44.3										
O=C(Nc1ccc(Cl)cc1)c1ccc(NC2=C(Cl)C(=O)N(Cc3ccccc3)C2=O)cc1	31.5	49.8	33.8	33.1	> 100	14.8	44.9	50.2	41.3	44.3	15.3	18.4	15.3	12.7	25.1	4.14	18.3	17.8	17.5	17.9
C=C1C(=O)O[C@H]2[C@H]1CC/C(COC(=O)NCc1ccc(Cn3c(=O)sn(CCCCl)c3=O)cc1)=C\CC[C@@]1(C)O[C@@H]21	5.33	49	4.54	3.89	30.5	> 100	2.8	10.3	3.3	2.8	2.05	5.64	1.71	1.8	11.3	26.9	1.35	2.63	1.74	1.44
COc1cc(/C=C2\CC3C4CC=C5C[C@@H](OC(C)=O)CC[C@]5(C)C4CC[C@]3(C)C2=O)ccc1OCCCn1ccnc1 (some centres undefined)	27.3	21.3	21	26.6	21.1	19.5	30.3	21.5	14.2	16.5	5.81	8.26	9.36	10.3	9.32	8.94	13	9.13	6.89	8.4
CCCCCCCCCCN(CCCCCCCCCC)CC(=O)c1ccc2cc(Br)c3ccccc3c2c1	4.43	21.7	3.25	3.42	3.98	3.52	3.5	9.47	3.7	3.35	1.7	3.59	1.8	1.76	1.98	1.79	1.98	3.07	2.05	1.61
Cn1ncc2c(N)nc(N3CCCCC3)nc21	> 100	76.3	39.9	81.4	> 100	> 100	58.7	69.2	> 100	37.3	29	28.3	17.1	24.1	42.5	> 100	18.2	29.6	25.4	19.6
COc1cc2c3c(n(CCCNCCN)c(=O)c2cc1OC)-c1cc2c(cc1C3=O)OCO2	5.87	4.76	> 100	4.56	> 49.9	> 62.4	> 51.8	> 31.9	2.22	2.64	0.836	0.419	0.616	1.02	1.24	18.9	5.36	0.776	0.39	1.01
CCOC(=O)C(=Cc1ccccc1[N+](=O)[O-])C(=O)OCC	14.3	11.6	14.2	12.1	10.8	7.8	2.78	11.5	9.32	3.39	3.61	2.71	2.52	3.08	3.25	2.59	1.33	3.35	3.55	1.59
CC1=C[C@H]2c3c(c(O)c(O)c4oc5ccccc5c(=O)c34)[C@H](c3cc(O)c(O)c4oc5ccccc5c(=O)c34)[C@H]2C(C)(C)C1	8.34	9.89	11.1	4.42	1.83	16.3	2.52	16.4	4.89	2.33	0.675	0.379	0.772	0.839	0.22	3.07	0.42	1.14	1.1	0.707
CCOc1cc2c(NCCCN(CCO)CCO)ncnc2c(OCC)c1OCC	> 100	> 100	> 100	> 100	> 100	> 100	> 100	> 100	> 100	> 100										
